The record followed here is patent publication US20220073532A1, “INHIBITORS OF CGAS ACTIVITY AS THERAPEUTIC AGENTS” (BELLBROOK LABS, LLC, priority 2019, published 2022).

The nature of series [1]: Mouse microsomal stability (NADPH). The class given is in vitro ADME. To be noted: liver microsomes, read-out: Mouse MS Stability (NADPH) t1/2. Here is the method: ADME/PK: Compounds are tested in Caco-2 and MDR1-MDCK permeability assays to provide a measure of intestinal absorption, blood-brain-permeability and efflux by P-glycoprotein (P-gp), a frequent obstacle to effective CNS delivery. CNS drugs are associated with high passive membrane permeability (Papp>1×10^−6 cm/sec) and have low efflux ratios (Papp(B-A)/Papp(A-B)<2.5). Metabolic stability is tested using mouse and human liver microsomes incubated with NADPH for CYP-dependent metabolism and with UDPGA for glucuronidation. Compounds are tested for pharmacokinetics and brain penetration in mice using oral, intravenous and intraperitoneal administration.
(In general: Microsomes from liver hold many membrane-bound enzymes, among them those of drug oxidation.)

Series [2] concerns the target cGAS (Homo sapiens, UniProt Q8N884). In words: cGAS enzymatic assay (FP/TR-FRET detection of cGAMP). The format is biochemical. Further details: The cGAS assay was used to screen 100,000 compounds with full-length human cGAS; 6xHis; made in house. The essentials:
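Homogeneous enzymatic assay with FP and TR-FRET read-outs, full-length enzyme at 30 nM. IC50 from dose-response under basal conditions (5 mM MgCl2, 100 μM ATP/GTP), also with 0.2 mM Mn added; values reported as letter bins from A (<100 nM) to E (>10 μM).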

Molecules are shown by their SMILES. Where two headings read alike, the source gives them in different places.

Sequence of cGAS (Q8N884 whole entry): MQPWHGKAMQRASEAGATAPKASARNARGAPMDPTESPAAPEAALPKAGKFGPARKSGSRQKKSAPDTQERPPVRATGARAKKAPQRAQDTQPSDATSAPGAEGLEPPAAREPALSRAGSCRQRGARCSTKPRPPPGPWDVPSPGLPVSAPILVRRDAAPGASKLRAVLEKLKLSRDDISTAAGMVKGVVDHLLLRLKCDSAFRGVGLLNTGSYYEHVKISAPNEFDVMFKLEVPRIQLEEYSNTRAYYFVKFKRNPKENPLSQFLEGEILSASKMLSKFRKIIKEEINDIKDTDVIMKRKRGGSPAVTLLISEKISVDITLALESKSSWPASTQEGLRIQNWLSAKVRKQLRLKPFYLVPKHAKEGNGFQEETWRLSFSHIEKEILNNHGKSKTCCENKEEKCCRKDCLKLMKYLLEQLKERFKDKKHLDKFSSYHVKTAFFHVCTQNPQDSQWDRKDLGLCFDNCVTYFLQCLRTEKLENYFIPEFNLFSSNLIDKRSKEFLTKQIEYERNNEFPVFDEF

For the compound `Cc1nc(N2CCC[C@H]2C(=O)O)c2oc3ccccc3c2n1` [Compound 15, (2-methylbenzofuro[3,2-d]pyrimidin-4-yl)-L-proline], the half-life in series [1] is over 2 h. Besides, the IC50 in series [2] (5 mM Mg^2+, 0.2 mM Mn^2+, read-out: IC50 (5 mM Mg^2+, 0.2 mM Mn^2+)) is 10800 ± 2400 nM; in series [2] (5 mM Mg^2+, read-out: IC50 (5 mM Mg^2+)), 1260 ± 570 nM; in series [2] (cGAS (30 nM), with Mn^2+, read-out: Inhibition cGAS + Mn^2+), 1000 to 10000 nM; in series [2] (cGAS (30 nM), read-out: Inhibition cGAS), 500 to 1000 nM. In series [2] (competition with ATP), the MOA entry is recorded as “ATP Competitive”.
